Laboratory results: PubChem BioAssay AID330 (DTP/NCI, 2004)
Several values for one entry are separate records, joined by “and”; a condition that tells them apart may be missing. Identical values can stand only once. Toxic doses and inconclusive results are not listed.

Tested on: P388 leukemia ip, CD2F1 mice, survival T/C
Test: NCI In Vivo Anticancer Drug Screen. Data for tumor model P388 Leukemia (intraperitoneal) in CD2F1 (CDF1) mice
Conditions: endpoint: median survival time, higher = longer survival
In short: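 Mice carrying the transplanted tumor received test compound or vehicle. Survival was recorded in each group, and the value is the treated-group measurement divided by that of the vehicle-treated control group.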

[1] = dose: 50.0 mg/kg/injection, schedule: Q01DX005 (ip), vehicle: Klucel (hydroxypropylcellulose) (HPC)
[2] = dose: 100.0 mg/kg/injection, schedule: Q01DX005 (ip), vehicle: Klucel (hydroxypropylcellulose) (HPC)
[3] = dose: 200.0 mg/kg/injection, schedule: Q01DX005 (ip), vehicle: Klucel (hydroxypropylcellulose) (HPC)
[4] = dose: 50.0 mg/kg/injection, schedule: Q04DX003 (ip), vehicle: saline with Tween-80
[5] = dose: 100.0 mg/kg/injection, schedule: Q04DX003 (ip), vehicle: saline with Tween-80

Compound: CCCCCCOC(=O)c1ccc(Br)cc1
- T/C (dose: 50.0 mg/kg/injection, schedule: Q01DX009 (ip), vehicle: Klucel (hydroxypropylcellulose) (HPC)): 104 % of control
- T/C (dose: 100.0 mg/kg/injection, schedule: Q01DX009 (ip), vehicle: Klucel (hydroxypropylcellulose) (HPC)): 101 % of control
- T/C (dose: 200.0 mg/kg/injection, schedule: Q01DX009 (ip), vehicle: Klucel (hydroxypropylcellulose) (HPC)): 93 % of control

Compound: O=S(=O)(O)c1ccccc1P(c1ccccc1)c1ccccc1
- T/C [1]: 98 % of control
- T/C [2]: 94 % of control
- T/C [3]: 88 % of control

Compound: N#CN=CN(Cc1ccccc1)Cc1ccccc1
- T/C (dose: 50.0 mg/kg/injection, schedule: Q01DX009 (ip), vehicle: saline with Tween-80): 101 % of control
- T/C (dose: 100.0 mg/kg/injection, schedule: Q01DX009 (ip), vehicle: saline with Tween-80): 96 % of control
- T/C (dose: 200.0 mg/kg/injection, schedule: Q01DX009 (ip), vehicle: saline with Tween-80): 93 % of control

Compound: CC(/C=C/C1(C)C(C)CCC(=O)C1C)=C\Cc1c(O)c(Cl)c(C)c(C=O)c1O (stereo not given)
- T/C (dose: 3.12 mg/kg/injection, schedule: Q01DX009 (ip), vehicle: Klucel (hydroxypropylcellulose) (HPC)): 101 % of control and 103 % of control
- T/C (dose: 6.25 mg/kg/injection, schedule: Q01DX009 (ip), vehicle: Klucel (hydroxypropylcellulose) (HPC)): 103 % of control and 106 % of control
- T/C (dose: 12.5 mg/kg/injection, schedule: Q01DX009 (ip), vehicle: Klucel (hydroxypropylcellulose) (HPC)): 106 % of control and 113 % of control

Compound: CC1CN(C(=O)/C=C/C(=O)OC2CCCCC2)C(C)CN1C(=O)/C=C/C(=O)OC1CCCCC1 (stereo not given)
- T/C [1]: 98 % of control
- T/C [2]: 94 % of control
- T/C [3]: 97 % of control

Compound: Cc1ncn2ncnc2c1C
- T/C (dose: 25.0 mg/kg/injection, schedule: Q04DX003 (ip), vehicle: saline with Tween-80): 103 % of control
- T/C [4]: 104 % of control
- T/C [5]: 101 % of control and 93 % of control

Compound: O=NN(CCF)C(=O)NC1CCS(=O)(=O)CC1
- T/C (dose: 1.25 mg/kg/injection, schedule: Q04DX003 (ip), vehicle: saline): 177 % of control
- T/C (dose: 2.5 mg/kg/injection, schedule: Q01DX009 (ip), vehicle: saline): 220 % of control
- T/C (dose: 2.5 mg/kg/injection, schedule: Q04DX003 (ip), vehicle: saline): 250 % of control
- T/C (dose: 5.0 mg/kg/injection, schedule: Q01DX009 (ip), vehicle: saline): 300 % of control
- T/C (dose: 5.0 mg/kg/injection, schedule: Q04DX003 (ip), vehicle: saline with Tween-80): 240 % of control
- T/C (dose: 5.0 mg/kg/injection, schedule: Q04DX003 (ip), vehicle: saline): 272 % of control
- T/C (dose: 6.6 mg/kg/injection, schedule: Q04DX003 (ip), vehicle: saline with Tween-80): 280 % of control
- T/C (dose: 10.0 mg/kg/injection, schedule: Q01DX009 (ip), vehicle: saline): 300 % of control
- T/C (dose: 10.0 mg/kg/injection, schedule: Q04DX003 (ip), vehicle: saline with Tween-80): 272 % of control and 285 % of control
- T/C (dose: 15.0 mg/kg/injection, schedule: Q04DX003 (ip), vehicle: saline with Tween-80): 285 % of control

Compound: CC(=O)/C(C)=C/C(=O)O
- T/C (dose: 25.0 mg/kg/injection, schedule: Q01DX009 (ip), vehicle: saline): 100 % of control
- T/C (dose: 25.0 mg/kg/injection, schedule: Q04DX003 (ip), vehicle: saline): 104 % of control
- T/C (dose: 50.0 mg/kg/injection, schedule: Q01DX009 (ip), vehicle: saline): 100 % of control
- T/C (dose: 50.0 mg/kg/injection, schedule: Q04DX003 (ip), vehicle: saline): 122 % of control
- T/C (dose: 100.0 mg/kg/injection, schedule: Q01DX009 (ip), vehicle: saline): 109 % of control
- T/C (dose: 100.0 mg/kg/injection, schedule: Q04DX003 (ip), vehicle: saline): 100 % of control

Compound: CCC1N=C(N)N=C(N)N1c1ccc(Cl)c(Cl)c1 (stereo not given)
- T/C (dose: 3.12 mg/kg/injection, schedule: Q01DX005 (ip), vehicle: Klucel (hydroxypropylcellulose) (HPC)): 104 % of control and 96 % of control
- T/C (dose: 6.25 mg/kg/injection, schedule: Q01DX005 (ip), vehicle: Klucel (hydroxypropylcellulose) (HPC)): 102 % of control and 105 % of control and 107 % of control
- T/C (dose: 12.5 mg/kg/injection, schedule: Q01DX005 (ip), vehicle: Klucel (hydroxypropylcellulose) (HPC)): 113 % of control and 114 % of control and 97 % of control
- T/C (dose: 25.0 mg/kg/injection, schedule: Q01DX005 (ip), vehicle: Klucel (hydroxypropylcellulose) (HPC)): 111 % of control and 114 % of control

Compound: COC(=O)C12CCc3cc(OC)ccc3C1=CC(=O)C2 (stereo not given)
- T/C [4]: 101 % of control
- T/C [5]: 105 % of control
- T/C (dose: 200.0 mg/kg/injection, schedule: Q04DX003 (ip), vehicle: saline with Tween-80): 100 % of control
- T/C (dose: 400.0 mg/kg/injection, schedule: Q04DX003 (ip), vehicle: saline with Tween-80): 100 % of control

Compound: CCOC(=O)C(Cc1ccc(O)cc1)NC(=O)C1Cc2c([nH]c3ccccc23)C=N1 (stereo not given)
- T/C (dose: 60.0 mg/kg/injection, schedule: Q01DX005 (ip), vehicle: saline with Tween-80): 100 % of control
- T/C (dose: 120.0 mg/kg/injection, schedule: Q01DX005 (ip), vehicle: saline with Tween-80): 102 % of control
- T/C (dose: 240.0 mg/kg/injection, schedule: Q01DX005 (ip), vehicle: saline with Tween-80): 106 % of control
